Results as given in ChEMBL document CHEMBL1201862, “PubChem BioAssay data set” (2004).
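Protocol summary: plate cells (96-well), add compound at 5 concentrations, incubate 48 h, interpolate endpoints linearly. The concentration for 50% growth inhibition is given as GI50.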 The source made the active and inactive calls. Cut-off read from the data, not from the text of the source: active = GI50 up to about 1.1 µM and inactive = higher.

How the values were obtained:
Assay in all cases: DTP human tumour cell line panel, 48 h
A549 = test system: A549
COLO 205 = test system: COLO 205
DU-145 = test system: DU-145
EKVX = test system: EKVX
HCT-15 = test system: HCT-15
HOP-62 = test system: HOP-62
Hs-578T = test system: Hs-578T
IGROV-1 = test system: IGROV-1
LOX IMVI = test system: LOX IMVI
NCI-H226 = test system: NCI-H226
NCI-H460 = test system: NCI-H460
NCI/ADR-RES = test system: NCI/ADR-RES
OVCAR-4 = test system: OVCAR-4
OVCAR-5 = test system: OVCAR-5
OVCAR-8 = test system: OVCAR-8
SF-268 = test system: SF-268
SN12C = test system: SN12C
U-251 = test system: U-251
UO-31 = test system: UO-31
MCF7 = test system: MCF7

Measured: GI50

CC(=O)O[C@H]1C[C@@H](OC(C)=O)[C@@](C)(O)[C@@H]2[C@@H](OC(C)=O)[C@@]3(O)[C@H](/C=C(/CCl)[C@H]4O[C@H]4[C@@H](OC(C)=O)[C@@]12C)OC(=O)[C@@H]3C
inactive: A549 > 25 µM | COLO 205 > 25 µM | DU-145 > 25 µM | EKVX > 25 µM | HOP-62 > 25 µM | Hs-578T > 25 µM | IGROV-1 > 25 µM | LOX IMVI 21.2 µM | NCI-H226 > 25 µM | NCI-H460 > 25 µM | NCI/ADR-RES > 25 µM | OVCAR-4 > 25 µM | OVCAR-5 > 25 µM | OVCAR-8 > 25 µM | SF-268 > 25 µM | SN12C > 25 µM | U-251 > 25 µM | UO-31 > 25 µM
> 25 µM: HCT-15

CC(C)(C)C1=C(Br)C(Br)(C(C)(C)C)OP1(=O)c1ccccc1 (stereo unspecified)
> 100 µM: HCT-15
inactive: A549 > 100 µM | COLO 205 > 100 µM | DU-145 > 100 µM | EKVX > 100 µM | HOP-62 > 100 µM | Hs-578T > 100 µM | IGROV-1 > 100 µM | LOX IMVI > 100 µM | MCF7 > 100 µM | NCI-H460 > 100 µM | NCI/ADR-RES > 100 µM | OVCAR-4 > 100 µM | OVCAR-5 > 100 µM | OVCAR-8 > 100 µM | SF-268 > 100 µM | SN12C > 100 µM | U-251 > 100 µM | UO-31 > 100 µM

O=C(Nc1ccccc1F)c1cc2ccc(O)cc2o/c1=N\c1ccccc1F
2.47 µM: HCT-15
inactive: A549 2.31 µM | COLO 205 21.8 µM | DU-145 1.95 µM | EKVX 2.75 µM | HOP-62 2.19 µM | Hs-578T 2.33 µM | IGROV-1 2.23 µM | LOX IMVI 2.57 µM | MCF7 3.2 µM | NCI-H460 2.25 µM | NCI/ADR-RES 2.42 µM | OVCAR-4 1.85 µM | OVCAR-5 4.5 µM | OVCAR-8 1.77 µM | SF-268 2.27 µM | U-251 1.93 µM | UO-31 1.93 µM

COC(=O)C1=C(O)c2ccc(Cl)cc2S(=O)(=O)N1C
inactive: A549 44.4 µM | COLO 205 > 100 µM | DU-145 > 100 µM | EKVX 42.2 µM | HOP-62 > 10 µM | Hs-578T > 100 µM | IGROV-1 78 µM | LOX IMVI > 100 µM | MCF7 > 100 µM | NCI-H460 45.3 µM | NCI/ADR-RES 19.1 µM | OVCAR-4 45.1 µM | OVCAR-5 > 100 µM | SF-268 64.7 µM | SN12C > 100 µM | U-251 81.3 µM | UO-31 > 10 µM
45.1 µM: HCT-15

CCOc1cc(-c2nc3ccccn3c2/N=C/c2cc([N+](=O)[O-])cc([N+](=O)[O-])c2O)ccc1O
> 100 µM: HCT-15
inactive: A549 > 100 µM | COLO 205 > 100 µM | DU-145 > 100 µM | EKVX > 100 µM | HOP-62 > 100 µM | Hs-578T > 100 µM | IGROV-1 > 100 µM | LOX IMVI > 100 µM | MCF7 > 100 µM | NCI-H460 > 100 µM | NCI/ADR-RES > 100 µM | OVCAR-4 > 100 µM | OVCAR-5 > 100 µM | OVCAR-8 > 100 µM | SF-268 > 100 µM | SN12C > 100 µM | U-251 > 100 µM | UO-31 > 100 µM

CCOC(=O)c1cn(-c2ccccc2)c(=S)n2c1nc1ccccc12
inactive: A549 42.9 µM | COLO 205 30.3 µM | DU-145 63.2 µM | EKVX 32.8 µM | HOP-62 53.2 µM | IGROV-1 42.5 µM | LOX IMVI > 67.1 µM | MCF7 35.5 µM | NCI-H226 27.3 µM | NCI-H460 61.4 µM | NCI/ADR-RES 25.5 µM | OVCAR-4 37.4 µM | OVCAR-5 > 100 µM | OVCAR-8 24.4 µM | SF-268 21.7 µM | SN12C > 70.1 µM | U-251 58.5 µM | UO-31 7.67 µM
41.5 µM: HCT-15

Cc1cccc2nc3cc(O)cc(O)c3c(O)c12
inactive: A549 > 10 µM | COLO 205 > 10 µM | DU-145 > 10 µM | HOP-62 > 10 µM | Hs-578T 2.86 µM | IGROV-1 > 10 µM | LOX IMVI > 10 µM | NCI-H226 > 10 µM | NCI-H460 > 10 µM | NCI/ADR-RES > 10 µM | OVCAR-4 > 10 µM | OVCAR-5 > 10 µM | OVCAR-8 > 10 µM | SF-268 > 10 µM | SN12C > 10 µM | U-251 > 10 µM | UO-31 > 10 µM
> 10 µM: HCT-15

Cn1c(COC(=O)NC2CCCCC2)c(COC(=O)NC2CCCCC2)c2ccc3ccccc3c21
inactive: A549 83.8 µM | COLO 205 33.2 µM | EKVX 47.2 µM | HOP-62 35 µM | Hs-578T 33.2 µM | IGROV-1 19.1 µM | LOX IMVI 23.3 µM | MCF7 20.5 µM | NCI-H226 23.7 µM | NCI-H460 3.01 µM | NCI/ADR-RES 23.1 µM | OVCAR-4 53.3 µM | OVCAR-5 43.5 µM | OVCAR-8 40.2 µM | SF-268 22.4 µM | U-251 > 100 µM | UO-31 34 µM
48.1 µM: HCT-15

N#CSC1CCCCNC1=O (stereo unspecified)
inactive: A549 15.1 µM | COLO 205 15.5 µM | DU-145 11.1 µM | EKVX 17.9 µM | HOP-62 20.6 µM | Hs-578T 16.1 µM | LOX IMVI 13.5 µM | MCF7 4.07 µM | NCI-H226 12 µM | NCI-H460 12.5 µM | NCI/ADR-RES 12.8 µM | OVCAR-5 2 µM | OVCAR-8 14.7 µM | SF-268 11.8 µM | SN12C 14.3 µM | U-251 11.2 µM | UO-31 15.1 µM
11.8 µM: HCT-15

CC1(C)Oc2ccc3c(=O)c4ccccc4oc3c2C1C(=O)O (stereo unspecified)
inactive: A549 > 100 µM | COLO 205 > 100 µM | DU-145 > 100 µM | EKVX > 100 µM | HOP-62 > 100 µM | Hs-578T > 100 µM | IGROV-1 > 100 µM | MCF7 > 100 µM | NCI-H226 > 100 µM | NCI/ADR-RES > 100 µM | OVCAR-4 > 100 µM | OVCAR-5 > 100 µM | OVCAR-8 > 100 µM | SF-268 > 100 µM | SN12C > 100 µM | U-251 > 100 µM

O=C1C=C(Nc2ccc(S(=O)(=O)Nc3nccs3)cc2)c2ccccc2C1=O
23.7 µM: HCT-15
inactive: A549 > 100 µM | EKVX 26.4 µM | HOP-62 15.4 µM | Hs-578T 25.8 µM | IGROV-1 12.5 µM | LOX IMVI 19.8 µM | MCF7 18.9 µM | NCI-H226 21.9 µM | NCI-H460 34 µM | NCI/ADR-RES 27.5 µM | OVCAR-4 32.9 µM | OVCAR-5 17.5 µM | OVCAR-8 23.1 µM | SF-268 27.1 µM | SN12C 24.6 µM | U-251 21.6 µM | UO-31 56.9 µM

COC(=O)c1c(OC(C)=O)ccc2c1c1c(OC(C)=O)c3ccccc3c(OC(C)=O)c1n2C
27.9 µM: HCT-15
inactive: A549 29.9 µM | COLO 205 29.2 µM | DU-145 19.9 µM | EKVX 10.1 µM | HOP-62 24.4 µM | Hs-578T 18.3 µM | IGROV-1 7.87 µM | MCF7 28.7 µM | NCI-H226 47.1 µM | NCI-H460 26.4 µM | NCI/ADR-RES 30.1 µM | OVCAR-4 19.4 µM | OVCAR-5 38.1 µM | OVCAR-8 22.6 µM | SF-268 22.6 µM | SN12C 53.7 µM | U-251 24.8 µM | UO-31 25.1 µM

Cc1ccc(NC(=O)/C(=N/N(C)C)C(C2OC(=O)c3ccccc32)[N+](=O)[O-])cc1 (stereo unspecified)
> 100 µM: HCT-15
inactive: A549 > 100 µM | HOP-62 > 100 µM | Hs-578T > 100 µM | LOX IMVI > 100 µM | MCF7 > 100 µM | NCI-H226 > 100 µM | NCI-H460 > 100 µM | NCI/ADR-RES > 100 µM | OVCAR-4 > 100 µM | OVCAR-5 > 100 µM | OVCAR-8 > 100 µM | SF-268 > 100 µM | SN12C > 100 µM | U-251 > 100 µM | UO-31 > 100 µM

CC(=O)Oc1ccc2c(c1)oc1c3ccc(OC(C)=O)cc3n(C)c(=O)c21
inactive: A549 35.1 µM | COLO 205 21.6 µM | DU-145 24 µM | EKVX 13.2 µM | HOP-62 34.9 µM | Hs-578T 4.48 µM | IGROV-1 29.9 µM | MCF7 35.6 µM | NCI-H226 10.2 µM | NCI-H460 36.3 µM | NCI/ADR-RES 15.7 µM | OVCAR-5 51.9 µM | OVCAR-8 22.5 µM | SF-268 12.5 µM | SN12C 27.2 µM | U-251 55 µM | UO-31 50.1 µM
36.5 µM: HCT-15

CCC(=O)NC(NNS(=O)(=O)c1ccc(C)cc1)(C(F)(F)F)C(F)(F)F
32.1 µM: HCT-15
inactive: A549 35.7 µM | COLO 205 > 100 µM | DU-145 > 100 µM | EKVX > 100 µM | HOP-62 65.2 µM | Hs-578T 34.2 µM | IGROV-1 49.4 µM | LOX IMVI > 100 µM | MCF7 76 µM | NCI-H226 > 100 µM | NCI-H460 33.5 µM | NCI/ADR-RES 27.3 µM | OVCAR-5 > 100 µM | OVCAR-8 44.9 µM | SF-268 55 µM | U-251 > 10 µM | UO-31 34.2 µM
